# Assay results: patent publication EP4089103A1, “CLPCP PROTEASE-BINDING CYCLIC HEPTAPEPTIDES” (priority 2021, dated 2022)
# Several values for one entry are separate records, joined by “and”; a condition that tells them apart may be missing. Equal entries are not always repeated. Where two headings read alike, the source gives them in different places. Starred links: 1 amine or outer side, 2 acyl side, 3 side chain; linkers in the order of their positions; H or OH if unused. Non-standard residues stand in square brackets, D forms with d. Residues, ends and D or L forms follow the SMILES beside them. *: point of attachment. Trp(1-(1,1-Me2-allyl)) = C=CC(C)(C)n1cc(C[C@H](N)C(=O)O)c2ccccc21; Phe(βR-OMe) = CO[C@H](c1ccccc1)[C@H](N)C(=O)O; X4 = C/C=C/[C@@H](C)[C@H](N[*:1])C(=O)[*:2]; X2 = CN([C@@H](CCCO)C(=O)[*:2])[*:1]; NMeE = CN[C@@H](CCC(=O)O)C(=O)O; NMeL = CN[C@@H](CC(C)C)C(=O)O; NMeK = CN[C@@H](CCCCN)C(=O)O; tBu = CC(C)(C)*; NHPr = CCCN*
# Key:
# ClpC1NTD = target: T1, ClpC1NTD (Mycolicibacterium smegmatis, UniProt A0R574); assay: Binding affinity by isothermal titration calorimetry (ITC); details: ITC at 25 °C, 50 mM Tris pH 7.5, 100 mM NaCl, 2% DMSO, single binding site model
# T1 construct: M. smegmatis clpC1 NTD (1-148) was cloned in pET21a; hexahistidine (C); made in house; host or cells: E. coli BL21 (DE3) or Rosetta
# T1 sequence (A0R574 1-148): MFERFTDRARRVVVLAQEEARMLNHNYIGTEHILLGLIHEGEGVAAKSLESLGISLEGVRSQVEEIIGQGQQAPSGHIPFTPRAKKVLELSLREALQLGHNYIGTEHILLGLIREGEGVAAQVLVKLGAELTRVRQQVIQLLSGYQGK
# Experimental: Binding affinities were determined using isothermal titration calorimetry (ITC).
# ITC experiments were carried out using MicroCal PEAQ-ITC (Malvern) at 25 °C, whilst stirring at 750 rpm in a buffer containing 50 mM Tris pH 7.5, 100 mM NaCl. Each titration consisted of 19 injections with intervals of 120 s (the first injection of 0.4 µL followed by 18 injections of 2 µL). DMSO concentration was matched between cell and syringe to 2%. The data were fitted to a single binding site model with a fitted offset subtraction in the MicroCal PEAQ-ITC Analysis Software. Each titration was repeated at least two times. Titrations were performed with ligand in the syringe and protein in the cell. A control titration of ligand into buffer was performed in order to account for the heat of dilution. Titrations involving compounds with poorer solubility of the compound in buffer were performed with ligand in the cell and protein in the syringe. The following table 2 provides the results of the determination. Table 2: results for dissociation constant (KD) and Minimal Inhibitory Concentration (MIC)
# mycobacterial cell = assay: Minimal Inhibitory Concentration (MIC); format: cell-based
# [1] = amide bond, 21-membered ring
# [2] = from H-Val-MeLeu-Ile-Trp(Boc)-MeGlu(tBu)-Ala-Phe-OH; amide bond; 21-membered ring; T3P/DIEA; DCM; 0.75 mM; 25.0 °C
# [3] = the molecule shown is the open-chain precursor
# [4] = the molecule shown is the open-chain precursor, DIC/HOAt/Et3N, DCM, 0.75 mM, 25.0 °C
compound,measurement,setting,value
CC[C@H](C)[C@@H]1NC(=O)[C@H](CC(C)C)N(C)C(=O)[C@H](C(C)C)NC(=O)[C@H](Cc2ccccc2)NC(=O)[C@H](C)NC(=O)[C@H](CCC(=O)O)N(C)C(=O)[C@H](Cc2c[nH]c3ccccc23)NC1=O [CycloA_D2] (cyclo(AFV[NMeL]IW[NMeE])),Kd,ClpC1NTD,225 µM
CC[C@H](C)[C@@H]1NC(=O)[C@H](CC(C)C)N(C)C(=O)[C@H](C(C)C)NC(=O)[C@H](Cc2ccccc2)NC(=O)[C@H](C)NC(=O)[C@H](CCCO)N(C)C(=O)[C@H](Cc2ccc(OC(C)(C)C)cc2)NC1=O [CycloA_D5a] (cyclo(V[NMeL]IY(tBu)[X2]AF)),MIC,mycobacterial cell,> 30 µM
same,Kd,ClpC1NTD,128 µM
CC[C@H](C)[C@@H]1NC(=O)[C@H](CC(C)C)N(C)C(=O)[C@H](C(C)C)NC(=O)[C@H](Cc2ccccc2)NC(=O)[C@H](C)NC(=O)[C@H](CCCO)N(C)C(=O)[C@H](Cc2ccc(O)cc2)NC1=O [CycloA_D5b] (cyclo(V[NMeL]IY[X2]AF)),Kd,ClpC1NTD,326 µM
CC[C@H](C)[C@@H]1NC(=O)[C@H](CC(C)C)N(C)C(=O)[C@H](C(C)C)NC(=O)[C@H](Cc2ccccc2)NC(=O)[C@H](C)NC(=O)[C@H](CCCCN)N(C)C(=O)[C@H](Cc2c[nH]c3ccccc23)NC1=O [CycloA_D6] (cyclo(AFV[NMeL]IW[NMeK])),MIC,mycobacterial cell,24 µM
same,Kd,ClpC1NTD,14.9 µM
CCCNC(=O)CC[C@H]1C(=O)N[C@@H](C)C(=O)N[C@@H](Cc2ccccc2)C(=O)N[C@@H](C(C)C)C(=O)N(C)[C@@H](CC(C)C)C(=O)N[C@@H]([C@@H](C)CC)C(=O)N[C@@H](Cc2c[nH]c3ccccc23)C(=O)N1C [CycloA_D7] (cyclo(AFV[NMeL]IW[NMeE](NHPr))),MIC,mycobacterial cell,> 120 µM
same,Kd,ClpC1NTD,26.8 µM
CC[C@H](C)[C@@H]1NC(=O)[C@H](CC(C)C)N(C)C(=O)[C@H](C(C)C)NC(=O)[C@H]([C@H](OC)c2ccccc2)NC(=O)[C@H](C)NC(=O)[C@H](CCCCN)N(C)C(=O)[C@H](Cc2c[nH]c3ccccc23)NC1=O [CycloA_D9] (cyclo(W[NMeK]A[Phe(βR-OMe)]V[NMeL]I)),MIC,mycobacterial cell,12 µM
same,Kd,ClpC1NTD,2.8 µM
"C=CC(C)(C)n1cc(C[C@@H]2NC(=O)[C@H]([C@@H](C)CC)NC(=O)[C@H](CC(C)C)N(C)C(=O)[C@H](C(C)C)NC(=O)[C@H](Cc3ccccc3)NC(=O)[C@H](C)NC(=O)[C@H](CCCCN)N(C)C2=O)c2ccccc21 [CycloA_D10] (cyclo(AFV[NMeL]I[Trp(1-(1,1-Me2-allyl))][NMeK]))",MIC,mycobacterial cell,40 µM
"C=CC(C)(C)n1cc(C[C@@H]2NC(=O)[C@H]([C@@H](C)CC)NC(=O)[C@H](CC(C)C)N(C)C(=O)[C@H](C(C)C)NC(=O)[C@H]([C@H](OC)c3ccccc3)NC(=O)[C@H](C)NC(=O)[C@H](CCCCN)N(C)C2=O)c2ccccc21 [CycloA_D11] (cyclo(A[Phe(βR-OMe)]V[NMeL]I[Trp(1-(1,1-Me2-allyl))][NMeK]))",MIC,mycobacterial cell,20 µM
CC[C@H](C)[C@@H]1NC(=O)[C@H](CCC(=O)O)N(C)C(=O)[C@H](C(C)C)NC(=O)[C@H]([C@H](OC)c2ccccc2)NC(=O)[C@H](C)NC(=O)[C@H](CCCCN)N(C)C(=O)[C@H](Cc2c[nH]c3ccccc23)NC1=O [CycloA_D13] (cyclo(A[Phe(βR-OMe)]V[NMeE]IW[NMeK])),MIC,mycobacterial cell,>200 µM
"C=CC(C)(C)n1cc(C[C@@H]2NC(=O)[C@H]([C@H](C)/C=C/C)NC(=O)[C@H](CC(C)C)N(C)C(=O)[C@H](C(C)C)NC(=O)[C@H]([C@H](OC)c3ccccc3)NC(=O)[C@H](C)NC(=O)[C@H](CCCCN)N(C)C2=O)c2ccccc21 [CycloA_D17] (cyclo(A[Phe(βR-OMe)]V[NMeL][X4][Trp(1-(1,1-Me2-allyl))][NMeK]))",MIC,mycobacterial cell,20 µM
CC[C@H](C)[C@@H]1NC(=O)[C@H](CC(C)C)N(C)C(=O)[C@H](C(C)C)NC(=O)[C@H](Cc2ccccc2)NC(=O)[C@H](C)NC(=O)[C@H](CCCO)N(C)C(=O)[C@H](Cc2c[nH]c3ccccc23)NC1=O [CylcoA_D4] (cyclo(AFV[NMeL]IW[X2])),MIC,mycobacterial cell,> 30 µM
same,Kd,ClpC1NTD,107 µM
CC[C@H](C)[C@@H]1NC(=O)[C@H](CCC(=O)OC(C)(C)C)N(C)C(=O)[C@H](C(C)C)NC(=O)[C@H]([C@H](OC)c2ccccc2)NC(=O)[C@H](C)NC(=O)[C@H](CCCCNC(=O)OC(C)(C)C)N(C)C(=O)[C@H](Cc2cn(C(=O)OC(C)(C)C)c3ccccc23)NC1=O [H-Val-MeGlu(tBu)-Ile-Trp(Boc)-MeLys(Boc)-Ala-Phe(3R-MeO)-OH],"ring closure, crude yield","[1]; from H-Val-MeGlu(tBu)-Ile-Trp(Boc)-MeLys(Boc)-Ala-Phe(3R-MeO)-OH, T3P/DIEA, DCM, 0.75 mM, 25.0 °C",52%
CC[C@H](C)[C@@H]1NC(=O)[C@H](CC(C)C)N(C)C(=O)[C@H](C(C)C)NC(=O)[C@H](Cc2ccccc2)NC(=O)[C@H](C)NC(=O)[C@H](CCC(=O)OC(C)(C)C)N(C)C(=O)[C@H](Cc2cn(C(=O)OC(C)(C)C)c3ccccc23)NC1=O [H-Val-MeLeu-Ile-Trp(Boc)-MeGlu(tBu)-Ala-Phe-OH],"ring closure, crude yield","[1]; from H-Val-MeLeu-Ile-Trp(Boc)-MeGlu(tBu)-Ala-Phe-OH, T3P/DIEA, DCM, 0.75 mM, 25.0 °C",52% and 54%
same,"ring closure, yield after HPLC",[2],39%
CC[C@H](C)[C@@H]1NC(=O)[C@H](CC(C)C)N(C)C(=O)[C@H](C(C)C)NC(=O)[C@H](Cc2ccccc2)NC(=O)[C@H](C)NC(=O)[C@H](CCCO[Si](C)(C)C(C)(C)C)N(C)C(=O)[C@H](Cc2cn(C(=O)OC(C)(C)C)c3ccccc23)NC1=O [H-Val-MeLeu-Ile-Trp(Boc)-MeHnv(TBDMS)-Ala-Phe-OH],"ring closure, crude yield","[1]; from H-Val-MeLeu-Ile-Trp(Boc)-MeHnv(TBDMS)-Ala-Phe-OH, T3P/DIEA, DCM, 0.75 mM, 25.0 °C",94%
CC[C@H](C)[C@@H]1NC(=O)[C@H](CC(C)C)N(C)C(=O)[C@H](C(C)C)NC(=O)[C@H]([C@H](OC)c2ccccc2)NC(=O)[C@H](C)NC(=O)[C@H](CCCCNC(=O)OC(C)(C)C)N(C)C(=O)[C@H](Cc2cn(C(=O)OC(C)(C)C)c3ccccc23)NC1=O [H-Val-MeLeu-Ile-Trp(Boc)-MeLys(Boc)-Ala-Phe(3R-MeO)-OH],"ring closure, crude yield","[1]; from H-Val-MeLeu-Ile-Trp(Boc)-MeLys(Boc)-Ala-Phe(3R-MeO)-OH, T3P/DIEA, DCM, 0.75 mM, 25.0 °C",88%
CC[C@H](C)[C@@H]1NC(=O)[C@H](CC(C)C)N(C)C(=O)[C@H](C(C)C)NC(=O)[C@H](Cc2ccccc2)NC(=O)[C@H](C)NC(=O)[C@H](CCCCNC(=O)OC(C)(C)C)N(C)C(=O)[C@H](Cc2cn(C(=O)OC(C)(C)C)c3ccccc23)NC1=O [H-Val-MeLeu-Ile-Trp(Boc)-MeLys(Boc)-Ala-Phe-OH],"ring closure, crude yield","[1]; from H-Val-MeLeu-Ile-Trp(Boc)-MeLys(Boc)-Ala-Phe-OH, T3P/DIEA, DCM, 0.75 mM, 25.0 °C",75%
CC[C@H](C)[C@@H]1NC(=O)[C@H](CC(C)C)N(C)C(=O)[C@H](C(C)C)NC(=O)[C@H](Cc2ccccc2)NC(=O)[C@H](C)NC(=O)[C@H](CCCNC(=O)OC(C)(C)C)N(C)C(=O)[C@H](Cc2cn(C(=O)OC(C)(C)C)c3ccccc23)NC1=O [H-Val-MeLeu-Ile-Trp(Boc)-MeOrn(Boc)-Ala-Phe-OH],"ring closure, crude yield","[1]; from H-Val-MeLeu-Ile-Trp(Boc)-MeOrn(Boc)-Ala-Phe-OH, T3P/DIEA, DCM, 0.75 mM, 25.0 °C",98%
CC[C@H](C)[C@@H]1NC(=O)[C@H](CC(C)C)N(C)C(=O)[C@H](C(C)C)NC(=O)[C@H](Cc2ccccc2)NC(=O)[C@H](C)NC(=O)[C@H](CCC(=O)OC)N(C)C(=O)[C@H](Cc2ccc(OC(C)(C)C)cc2)NC1=O [H-Val-MeLeu-Ile-Tyr(tBu)-MeGlu(Me)-Ala-Phe-OH],"ring closure, crude yield","[1]; from H-Val-MeLeu-Ile-Tyr(tBu)-MeGlu(Me)-Ala-Phe-OH, T3P/DIEA, DCM, 0.75 mM, 25.0 °C",72%
H-Glu(TOTA-PMX-methylester)-Phe(3R-MeO)-Val-MeLeu-Ile-Trp(Boc)-MeLys(Boc)-OH,"ring closure, crude yield",[1]; [3],77% and 58%
H-Glu(TOTA-TMP)-Phe(3R-MeO)-Val-MeLeu-Ile-Trp(Boc)-MeLys(Boc)-OH?,"ring closure, crude yield",[1]; [3],65%
H-Val-MeLeu-Ile-Trp(Boc)-MeLys(Boc)-Glu(TOTA-(+)JQ1)-Phe(3R-MeO)-OH,"ring closure, crude yield",[1]; [3],64%
H-Val-MeLeu-Ile-Trp(Boc)-MeLys(Boc)-Glu(TOTA-(-)JQ1)-Phe(3R-MeO)-OH,"ring closure, crude yield",[1]; [3],70%
H-Val-MeLeu-Ile-Trp(Boc)-MeLys(Boc)-Glu(TOTA-Biotin)-Phe(3R-MeO)-OH,"ring closure, crude yield",[1]; [4],63%
H-Val-MeLeu-Ile-Trp(Boc)-MeLys(Boc)-Glu(TOTA-SLF')-Phe(3R-MeO)-OH,"ring closure, crude yield",[1]; [3],54%
H-Val-MeLeu-Ile-Trp(Boc)-MeLys(Boc)-Lys(Biotin)-Phe(3R-MeO)-OH,"ring closure, crude yield",[1]; [4],72%
H-Val-MeLeu-Ile-Trp(prenyl)-MeLys(Boc)-Ala-Phe(3R-MeO)-OH,"ring closure, crude yield",[1]; [4],65%
H-Val-MeLeu-Ile-Trp(prenyl)-MeLys(Boc)-Ala-Phe-OH,"ring closure, crude yield",[1]; [4],78%
H-Val-MeLeu-dehydroisonorleucine-Trp(prenyl)-MeLys(Boc)-Ala-Phe(3R-MeO)-OH,"ring closure, crude yield",[1]; [4],81%
